According to US8415486B2, “IAP inhibitors” (TetraLogic Pharmaceuticals Corp., priority 2009, dated 2013):

Legend:
XIAP BIR-3 = target: T1, XIAP BIR-3 (Homo sapiens, UniProt P98170); assay: Fluorescence polarization binding to XIAP BIR-3 with labeled peptide AbuRPF-K(5-Fam)-NH2; conditions: 40 nM BIR3, 5 nM labeled peptide, reported as ranges
T1 construct: 40 nM of the respective IAP BIR3
Method in brief: (§1)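 Competitive FP: compounds titrated against 5 nM AbuRPF-K(5-Fam)-NH2 tracer and 40 nM BIR3 protein, 15 min at RT in 0.1 M potassium phosphate pH 7.5 with bovine γ-globulin. Polarization read at 485/520 nm; KD reported in ranges A <0.1, B 0.1–1, C >1–10, D >10 μM.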

cIAP-1 BIR-3 = target: T2, cIAP-1 BIR-3 (Homo sapiens, UniProt Q13490); assay: Fluorescence polarization binding to cIAP-1 BIR-3 with labeled peptide AbuRPF-K(5-Fam)-NH2; conditions: 40 nM BIR3, 5 nM labeled peptide, reported as ranges, read-out: KD (c-IAP-1 BIR3)
T2 construct: 40 nM of the respective IAP BIR3
T2 sequence (Q13490 253-363 limits assumed): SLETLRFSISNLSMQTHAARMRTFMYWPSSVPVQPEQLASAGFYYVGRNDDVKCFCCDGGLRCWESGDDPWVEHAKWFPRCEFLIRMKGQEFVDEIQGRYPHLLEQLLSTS
Method in brief: as §1

[1] = system: ovarian cancer cell line, SK-OV-3; assay: SK-OV-3 cell growth inhibition (MTT, 72 hrs); format: cell-based; conditions: Homo sapiens, concentration giving 50% cell survival, reported as ranges
Method in brief: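 After overnight seeding in McCoy's medium with 10% FBS, SK-OV-3 cells were exposed to compound at 0.003-10 μM for 72 hrs at 37° C. MTT was then added for 3 h, with DMSO solubilization and OD read at 535 nm. CC50 is the concentration giving 50% survival relative to untreated control, reported as ranges.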

T1 sequence (P98170 241-356 limits assumed): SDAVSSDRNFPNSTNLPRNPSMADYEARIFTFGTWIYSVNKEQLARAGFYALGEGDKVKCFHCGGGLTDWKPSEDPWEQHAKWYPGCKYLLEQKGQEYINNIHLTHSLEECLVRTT

Compound	Kd (XIAP BIR-3)	Kd (cIAP-1 BIR-3)	CC50 [1]
CN[C@@H](C)C(=O)N[C@H](C(=O)N1CC[C@@H]2[C@H]1[C@@H](COc1ccc(F)c(F)c1)CN2C(=O)OC)C(C)(C)C [Example 70, 3-(3,4-Difluoro-phenoxymethyl)-4-[3.3-dimethyl-2-(2-methylaminopropionylamino)-butyryl]-hexahydro-pyrrolo[3,2-b]pyrrole-1-carboxylic acid methyl ester]	< 100 nM	< 100 nM	< 100 nM
CN[C@@H](C)C(=O)N[C@H](C(=O)N1CC[C@@H]2[C@H]1[C@@H](COc1ccc(F)c(F)c1)CN2C(=O)N(C)C)C(C)(C)C [Example 68, 3-(3,4-Difluoro-phenoxymethyl)-4-[3.3-dimethyl-2-(2-methylaminopropionylamino)-butyryl]-hexahydro-pyrrolo[3,2-b]pyrrole-1-carboxylic acid dimethylamide]	< 100 nM	< 100 nM	< 100 nM
CN[C@@H](C)C(=O)N[C@H](C(=O)N1CC[C@@H]2[C@H]1[C@@H](COc1ccc(F)c(F)c1)CN2C(=O)C(C)=O)C(C)(C)C [Example 66, N-{1-[6-(3,4-Difluoro-phenoxymethyl)-4-(2-oxo-propionyl)-hexahydro-pyrrolo[3,2-b]pyrrole-1-carbonyl]-2,2-dimethyl-propyl}-2-methylamino propionamide]	< 100 nM	< 100 nM	< 100 nM
CN[C@@H](C)C(=O)N[C@H](C(=O)N1CC[C@@H]2[C@H]1[C@@H](OC(=O)N1CCCC1)CN2C(=O)NC(C)C)C(C)(C)C [Example 58, Pyrrolidine-1-carboxylic acid 4-[3,3-dimethyl-2-(2-methylamino-propionylamino)-butyryl]-1-isopropylcarbamoyl-octahydro-pyrrolo[3,2-b]pyrrol-3-yl ester]	1000 to 10000 nM	100 to 1000 nM	1000 to 10000 nM

Second part, led by results:

Kd (XIAP BIR-3)	Kd (cIAP-1 BIR-3)	Compound	CC50 [1]
100 to 1000 nM	< 100 nM	CN[C@@H](C)C(=O)N[C@H](C(=O)N1CC[C@@H]2[C@H]1[C@@H](OC(=O)NC1CCCCC1)CN2C(=O)NC(C)C)C(C)(C)C [Example 57, Cyclohexyl-carbamic acid 4-[3,3-dimethyl-2-(2-methylamino-propionylamino)-butyryl]-1-isopropylcarbamoyl-octahydro-pyrrolo[3,2-b]pyrrol-3-yl ester]	< 100 nM
100 to 1000 nM	< 100 nM	CNC(=O)N1C[C@H](OCc2ccc(F)cc2)[C@@H]2[C@H]1CCN2C(=O)[C@@H](NC(=O)[C@H](C)NC)C(C)(C)C [Example 36, 4-[3,3-Dimethyl-2-(2-methylamino-propionylamino)-butyryl]-3-(4-fluoro-benzyloxy)-hexahydro-pyrrolo[3,2-b]pyrrole-1-carboxylic acid methylamide]	< 100 nM
100 to 1000 nM	< 100 nM	CCCCNC(=O)O[C@H]1CN(C(=O)NC(C)C)[C@@H]2CCN(C(=O)[C@@H](NC(=O)[C@H](C)NC)C(C)(C)C)[C@H]12 [Example 53, Butyl-carbamic acid 4-[3,3-dimethyl-2-(2-methylamino-propionylamino)-butyryl]-1-isopropylcarbamoyl-octahydro-pyrrolo[3,2-b]pyrrol-3-yl ester]	100 to 1000 nM
< 100 nM	< 100 nM	CNC(=O)N1C[C@H](Oc2ccc(F)cc2)[C@@H]2[C@H]1CCN2C(=O)[C@@H](NC(=O)[C@H](C)NC)C1CCCCC1 [Example 26, 4-[2-Cyclohexyl-2-(2-methylamino-propionylamino)-acetyl]-3-(4-fluoro-phenoxy)-hexahydro-pyrrolo[3,2-b]pyrrole-1-carboxylic acid methylamide]	< 100 nM
